Legend:
Btk = Btk (Homo sapiens, UniProt Q06187); test: Kinase activity assay, Btk
Fms = Fms (Homo sapiens, UniProt P07333); test: Kinase activity assay, Fms
Kdr = Kdr (Homo sapiens, UniProt P35968); test: Kinase activity assay, Kdr
Kit = Kit (Homo sapiens, UniProt P10721); test: Kinase activity assay, Kit
Src = Src (Homo sapiens, UniProt P12931); test: Kinase activity assay, Src
TEC = target: T1, TEC (Homo sapiens, UniProt P42680); test: Kinase activity assay, TEC
T1 sequence (P42680 1-631): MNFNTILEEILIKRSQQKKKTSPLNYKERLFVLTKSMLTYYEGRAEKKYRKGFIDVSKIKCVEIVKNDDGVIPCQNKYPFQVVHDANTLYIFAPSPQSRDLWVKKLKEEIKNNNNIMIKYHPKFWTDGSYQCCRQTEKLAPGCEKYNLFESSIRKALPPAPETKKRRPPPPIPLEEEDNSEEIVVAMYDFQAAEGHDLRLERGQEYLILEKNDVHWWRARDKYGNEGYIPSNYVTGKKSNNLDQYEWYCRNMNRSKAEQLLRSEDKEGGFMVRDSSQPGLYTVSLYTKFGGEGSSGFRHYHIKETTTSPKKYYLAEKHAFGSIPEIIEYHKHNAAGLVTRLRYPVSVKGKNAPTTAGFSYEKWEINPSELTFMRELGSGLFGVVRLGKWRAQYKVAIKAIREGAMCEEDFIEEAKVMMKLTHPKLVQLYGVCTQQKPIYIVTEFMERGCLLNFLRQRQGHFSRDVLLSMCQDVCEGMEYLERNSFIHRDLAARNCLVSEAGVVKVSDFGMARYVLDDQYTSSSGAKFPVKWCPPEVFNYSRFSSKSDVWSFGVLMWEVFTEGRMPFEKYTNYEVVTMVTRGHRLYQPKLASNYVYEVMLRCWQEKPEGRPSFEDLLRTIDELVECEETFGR

MAP4K4 = MAP4K4 (Homo sapiens, UniProt O95819); test: Kinase activity assay, MAP4K4
B-Raf = B-Raf (Homo sapiens, UniProt P15056); test: Kinase activity assay, B-Raf; format: biochemical; conditions: read-out: activity toward kinase B-Raf, IC50
B-Raf V600E = B-Raf V600E (Homo sapiens, UniProt P15056, V600E); test: Kinase activity assay, B-Raf V600E; format: biochemical; conditions: read-out: activity toward kinase B-Raf V600E, IC50
C-Raf = C-Raf (Homo sapiens, UniProt P04049); test: Kinase activity assay, C-Raf

Measured: IC50

Sequence of Btk (Q06187 whole entry): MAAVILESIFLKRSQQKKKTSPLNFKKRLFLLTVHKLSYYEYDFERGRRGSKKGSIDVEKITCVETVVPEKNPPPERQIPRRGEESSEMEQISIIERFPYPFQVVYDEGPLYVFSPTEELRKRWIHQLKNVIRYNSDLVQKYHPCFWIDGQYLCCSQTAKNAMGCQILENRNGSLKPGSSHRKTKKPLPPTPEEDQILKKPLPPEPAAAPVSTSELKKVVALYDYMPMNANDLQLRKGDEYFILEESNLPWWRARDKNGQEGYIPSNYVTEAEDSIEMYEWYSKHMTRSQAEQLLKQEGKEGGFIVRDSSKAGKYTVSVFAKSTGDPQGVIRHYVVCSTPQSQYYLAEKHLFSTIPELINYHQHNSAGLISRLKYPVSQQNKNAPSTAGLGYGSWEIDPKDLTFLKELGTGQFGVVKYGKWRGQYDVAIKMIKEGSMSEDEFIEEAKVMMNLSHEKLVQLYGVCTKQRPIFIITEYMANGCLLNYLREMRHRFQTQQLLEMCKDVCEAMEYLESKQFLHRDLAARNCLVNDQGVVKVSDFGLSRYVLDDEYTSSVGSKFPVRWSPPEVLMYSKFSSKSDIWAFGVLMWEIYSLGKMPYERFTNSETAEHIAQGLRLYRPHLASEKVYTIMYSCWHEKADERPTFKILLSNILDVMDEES
Sequence of Src (P12931 whole entry): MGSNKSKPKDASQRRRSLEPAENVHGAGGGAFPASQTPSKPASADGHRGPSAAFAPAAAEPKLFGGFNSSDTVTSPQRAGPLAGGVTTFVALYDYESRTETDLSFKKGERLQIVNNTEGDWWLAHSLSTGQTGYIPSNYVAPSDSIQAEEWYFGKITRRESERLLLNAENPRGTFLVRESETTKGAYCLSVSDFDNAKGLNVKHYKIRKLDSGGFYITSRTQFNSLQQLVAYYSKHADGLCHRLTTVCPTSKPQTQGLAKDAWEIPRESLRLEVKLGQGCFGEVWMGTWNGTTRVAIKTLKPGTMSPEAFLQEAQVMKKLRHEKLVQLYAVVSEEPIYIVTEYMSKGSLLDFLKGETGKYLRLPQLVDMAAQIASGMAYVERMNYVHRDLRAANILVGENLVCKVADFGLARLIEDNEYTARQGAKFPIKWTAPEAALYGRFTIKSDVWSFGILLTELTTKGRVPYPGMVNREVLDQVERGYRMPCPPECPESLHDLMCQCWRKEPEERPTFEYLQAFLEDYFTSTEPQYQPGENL
Sequence of MAP4K4 (O95819 whole entry): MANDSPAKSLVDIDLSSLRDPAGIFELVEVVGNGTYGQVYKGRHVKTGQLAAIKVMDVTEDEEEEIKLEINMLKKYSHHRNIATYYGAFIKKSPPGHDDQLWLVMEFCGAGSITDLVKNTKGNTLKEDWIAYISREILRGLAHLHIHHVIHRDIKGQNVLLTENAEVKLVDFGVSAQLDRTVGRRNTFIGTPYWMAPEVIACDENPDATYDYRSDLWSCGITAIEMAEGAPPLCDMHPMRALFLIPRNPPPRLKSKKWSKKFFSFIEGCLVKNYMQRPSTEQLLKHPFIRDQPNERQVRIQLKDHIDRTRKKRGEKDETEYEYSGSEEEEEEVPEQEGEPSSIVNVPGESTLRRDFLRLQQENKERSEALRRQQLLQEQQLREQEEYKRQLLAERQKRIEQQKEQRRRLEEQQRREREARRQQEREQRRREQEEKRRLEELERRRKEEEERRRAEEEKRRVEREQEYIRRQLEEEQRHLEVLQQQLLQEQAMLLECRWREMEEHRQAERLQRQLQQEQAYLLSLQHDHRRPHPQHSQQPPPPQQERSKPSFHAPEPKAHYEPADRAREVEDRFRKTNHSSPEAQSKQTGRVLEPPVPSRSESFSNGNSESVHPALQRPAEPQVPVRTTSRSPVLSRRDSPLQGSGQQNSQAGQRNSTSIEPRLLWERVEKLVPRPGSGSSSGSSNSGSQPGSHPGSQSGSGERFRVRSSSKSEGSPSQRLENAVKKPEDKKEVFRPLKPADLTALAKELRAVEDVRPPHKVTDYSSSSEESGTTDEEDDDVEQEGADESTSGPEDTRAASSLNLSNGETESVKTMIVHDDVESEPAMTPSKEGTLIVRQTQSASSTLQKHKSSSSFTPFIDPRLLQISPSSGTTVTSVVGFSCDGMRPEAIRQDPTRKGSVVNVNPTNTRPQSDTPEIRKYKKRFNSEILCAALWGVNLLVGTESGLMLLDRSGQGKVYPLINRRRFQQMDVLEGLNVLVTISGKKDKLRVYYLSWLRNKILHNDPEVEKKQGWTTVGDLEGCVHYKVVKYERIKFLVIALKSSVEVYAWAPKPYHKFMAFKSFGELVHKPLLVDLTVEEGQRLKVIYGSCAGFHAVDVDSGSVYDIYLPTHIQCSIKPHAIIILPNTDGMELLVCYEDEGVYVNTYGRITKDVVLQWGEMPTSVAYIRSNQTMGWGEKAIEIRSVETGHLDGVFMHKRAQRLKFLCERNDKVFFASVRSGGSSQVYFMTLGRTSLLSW
Sequence of Kdr (P35968 20-1356): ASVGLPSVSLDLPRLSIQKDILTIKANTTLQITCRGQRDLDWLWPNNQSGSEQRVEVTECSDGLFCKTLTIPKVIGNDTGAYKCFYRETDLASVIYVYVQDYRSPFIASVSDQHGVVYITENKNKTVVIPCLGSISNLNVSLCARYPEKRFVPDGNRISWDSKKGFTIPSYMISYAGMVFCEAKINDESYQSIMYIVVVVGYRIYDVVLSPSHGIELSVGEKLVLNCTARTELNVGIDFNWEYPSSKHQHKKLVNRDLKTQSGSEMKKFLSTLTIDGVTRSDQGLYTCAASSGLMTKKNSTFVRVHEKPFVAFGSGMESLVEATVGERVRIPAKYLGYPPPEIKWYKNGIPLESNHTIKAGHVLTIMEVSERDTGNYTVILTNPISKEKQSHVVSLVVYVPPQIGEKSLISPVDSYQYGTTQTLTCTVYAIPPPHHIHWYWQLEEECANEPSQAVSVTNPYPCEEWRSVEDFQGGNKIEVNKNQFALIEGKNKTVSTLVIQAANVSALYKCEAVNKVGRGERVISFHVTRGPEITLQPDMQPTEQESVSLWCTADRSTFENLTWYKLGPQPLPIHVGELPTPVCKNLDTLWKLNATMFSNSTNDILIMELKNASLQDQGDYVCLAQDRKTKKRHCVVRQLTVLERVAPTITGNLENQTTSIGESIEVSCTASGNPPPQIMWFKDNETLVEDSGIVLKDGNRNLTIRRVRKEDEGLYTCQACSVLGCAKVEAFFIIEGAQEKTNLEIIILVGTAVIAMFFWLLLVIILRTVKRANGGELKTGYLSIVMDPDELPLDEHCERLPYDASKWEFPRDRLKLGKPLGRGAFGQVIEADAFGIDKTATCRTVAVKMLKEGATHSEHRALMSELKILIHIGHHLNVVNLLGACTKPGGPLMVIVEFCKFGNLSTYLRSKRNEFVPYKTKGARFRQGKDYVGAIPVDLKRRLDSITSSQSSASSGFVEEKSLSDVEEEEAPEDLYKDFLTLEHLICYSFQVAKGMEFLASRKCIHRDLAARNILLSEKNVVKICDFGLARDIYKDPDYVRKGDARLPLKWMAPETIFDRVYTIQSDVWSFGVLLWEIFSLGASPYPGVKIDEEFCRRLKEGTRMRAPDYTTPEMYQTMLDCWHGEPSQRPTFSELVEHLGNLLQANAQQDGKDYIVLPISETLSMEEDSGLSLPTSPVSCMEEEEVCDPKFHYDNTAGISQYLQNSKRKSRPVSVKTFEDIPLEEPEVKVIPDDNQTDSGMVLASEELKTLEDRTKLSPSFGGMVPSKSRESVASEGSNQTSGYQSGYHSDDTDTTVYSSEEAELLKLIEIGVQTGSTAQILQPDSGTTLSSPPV
Sequence of Fms (P07333 20-972): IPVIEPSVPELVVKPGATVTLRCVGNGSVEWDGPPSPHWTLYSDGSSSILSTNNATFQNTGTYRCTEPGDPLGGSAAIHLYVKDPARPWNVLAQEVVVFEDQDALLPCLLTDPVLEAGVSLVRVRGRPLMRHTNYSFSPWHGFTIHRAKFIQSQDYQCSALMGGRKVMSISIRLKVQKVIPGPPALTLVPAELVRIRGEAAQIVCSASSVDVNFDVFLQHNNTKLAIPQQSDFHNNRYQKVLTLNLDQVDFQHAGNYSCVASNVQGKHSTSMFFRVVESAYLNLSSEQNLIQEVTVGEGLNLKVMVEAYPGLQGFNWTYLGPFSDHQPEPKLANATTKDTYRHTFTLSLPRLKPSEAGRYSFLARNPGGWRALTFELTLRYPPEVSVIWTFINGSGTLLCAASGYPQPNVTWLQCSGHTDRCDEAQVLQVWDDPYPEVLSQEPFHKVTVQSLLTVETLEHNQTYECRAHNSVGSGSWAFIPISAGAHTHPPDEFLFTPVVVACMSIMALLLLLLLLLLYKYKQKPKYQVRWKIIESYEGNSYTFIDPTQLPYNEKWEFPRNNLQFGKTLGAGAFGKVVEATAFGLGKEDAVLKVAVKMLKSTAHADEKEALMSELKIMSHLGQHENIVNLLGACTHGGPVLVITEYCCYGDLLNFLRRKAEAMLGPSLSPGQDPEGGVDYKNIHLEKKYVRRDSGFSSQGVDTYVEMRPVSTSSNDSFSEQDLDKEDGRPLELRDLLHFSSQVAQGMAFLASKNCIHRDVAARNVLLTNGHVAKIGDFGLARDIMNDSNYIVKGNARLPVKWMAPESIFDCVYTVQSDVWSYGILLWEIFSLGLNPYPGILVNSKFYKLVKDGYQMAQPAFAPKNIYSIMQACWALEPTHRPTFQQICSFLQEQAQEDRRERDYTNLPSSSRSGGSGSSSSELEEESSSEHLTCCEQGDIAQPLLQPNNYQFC

CS(=O)(=O)c1cccc(-c2cnc3[nH]cc(C(=O)c4cc(NS(=O)(=O)c5cccnc5)ccc4F)c3c2)c1 [P-2138, Pyridine-3-sulfonic acid {4-fluoro-3-[5-(3-methanesulfonyl-phenyl)-1H-pyrrolo[2,3-b]pyridine-3-carbonyl]-phenyl}-amide]
not listed: B-Raf | B-Raf V600E | C-Raf
≤ 10 µM: all other assays above

Cn1cc(-c2cnc3[nH]cc(C(=O)c4cc(NS(=O)(=O)c5cccnc5)ccc4F)c3c2)cn1 [P-2140, Pyridine-3-sulfonic acid{4-fluoro-3-[5-(1-methyl-1H-pyrazol-4-yl)-1H-pyrrolo[2,3-b]pyridine-3-carbonyl]-phenyl}-amide]
≤ 10 µM: all assays above

COc1cnc2[nH]cc(C(=O)c3cccc(NS(=O)(=O)c4cccnc4)c3)c2c1 [P-2142, Pyridine-3-sulfonic acid [3-(5-methoxy-1H-pyrrolo[2,3-b]pyridine-3-carbonyl)-phenyl]-amide]
not listed: B-Raf V600E | C-Raf
≤ 10 µM: all other assays above

Cn1cc(-c2cnc3[nH]cc(C(=O)c4cccc(NS(=O)(=O)c5cccnc5)c4)c3c2)cn1 [P-2144, Pyridine-3-sulfonic acid {3-[5-(1-methyl-1H-pyrazol-4-yl)-1H-pyrrolo[2,3-b]pyridine-3-carbonyl]-phenyl}-amide]
not listed: B-Raf V600E | C-Raf
≤ 10 µM: all other assays above

CS(=O)(=O)Nc1cccc(-c2cnc3[nH]cc(C(=O)c4cc(NS(=O)(=O)C5CCCCC5)ccc4F)c3c2)c1 [P-2446, Cyclohexanesulfonic acid {4-fluoro-3-[5-(3-methanesulfonylamino-phenyl)-1H-pyrrolo[2,3-b]pyridine-3-carbonyl]-phenyl}-amide]
not listed: B-Raf
≤ 10 µM: all other assays above

Cc1cnc2[nH]cc(C(=O)c3cc(NS(=O)(=O)C4CCCC4)ccc3F)c2c1 [P-2448, Cyclopentanesulfonic acid [4-fluoro-3-(5-methyl-1H-pyrrolo[2,3-b]pyridine-3-carbonyl)-phenyl]-amide]
not listed: B-Raf | B-Raf V600E | C-Raf
≤ 10 µM: all other assays above

COc1cnc2[nH]cc(C(=O)c3cccc(NS(=O)(=O)C4CCCCC4)c3)c2c1 [P-2460, Cyclohexanesulfonic acid [3-(5-methoxy-1H-pyrrolo[2,3-b]pyridine-3-carbonyl)-phenyl]-amide]
not listed: B-Raf | B-Raf V600E | C-Raf
≤ 10 µM: all other assays above

From patent US20120122860A1, “SOLID FORMS OF SULFONAMIDES AND AMINO ACIDS” (Plexxikon, Inc., priority 2009, published 2012)
